Assay results as given in patent US20180140578A1, “METHODS AND COMPOSITIONS FOR THE DIAGNOSIS AND SELECTIVE TREATMENT OF CANCER” (Board of Regents of the University of Texas System, priority 2016, published 2018).
“Also recorded” adds a separate entry of the source.

Legend:
[1] = test system: tumors derived from HCT-116 cells expressing RBM39 G268V; assay: Mouse xenograft model, HCT-116 RBM39 G268V; assay type: in vivo, Nod-Scid IL-2Rγ KO mice
Procedure: All animal work was approved by the Institutional Animal Care and Use Committee at UTSW. UTSW is accredited by the Association for Assessment and Accreditation of Laboratory Animal Care International (AAALAC). Animals were obtained from the UTSW Breeding Core Facility. Nod-Scid IL-2Rγ KO mice were implanted with 5 million parental HCT-116 cells or HCT-116 cells expressing RBM39 G268V in a volume of 0.1 ml in the left flank. Tumor volumes were measured every 2-4 days with calipers. Volume is calculated as (L*W^2)*3.14)/6.

[2] = target: T1, RBM39-3xFLAG with DDA1, DDB1, CUL4A, CUL4B (Homo sapiens, UniProt Q14498+Q66K64); assay: Co-immunoprecipitation of RBM39-3xFLAG from treated cells; assay type: cell-based; settings: cells treated with indisulam but not DMSO
T1 construct: endogenous in cells; host or cells: HCT-116 RBM39-3xFLAG knock-in cells (treated cells in A90)
Procedure: Anti-Flag M2 antibody (Sigma-Aldrich) was coupled to Dynabeads M-270 epoxy beads (Life Technologies) at the ratio of 10 μg of antibody/mg beads. […] Frozen cells were then pulverized in the a cryomill (Retsch) with one 25 mm steel ball and five cycles of three min at 25 Hz with intermittent cooling in liquid nitrogen. […] The lysates were centrifuged at 8000 g for 5 min at 4° C. 12 mg of conjugated Anti-Flag magnetic beads were mixed with clarified lysates for 5 min at 4° C. on a rotating platform, followed by three washes with IP buffer. Bound proteins were eluted with 1 mg/ml 3xFLAG peptide, followed by SDS-PAGE on a 10% Bis Tris gel. After brief electrophoresis, bands containing all the proteins were cut with clean blades. For western blotting of co-immunoprecipitated proteins, anti-DDA1 (ProteinTech, 14995-1-AP, 1:1000), anti-DDB1 (Abcam, ab109027, 1;10000), anti-CUL4A (Cell Signaling, 2699, 1:1000), anti-CUL4B (ProteinTech, 12916-1-AP, 1:1000) were used.

[3] = test system: DCAF15-3xFLAG and mutant RBM39Δ150 (M265L, E271Q, P272S); assay: RBM39Δ150 pulldown assay, mutant RBM39; assay type: binding, human; settings: at concentrations as high as 10 μM
Procedure: RBM39 lacking the first 150 amino acids after the start codon (RBM39Δ150) was cloned into the pFastBac1 (Life Technologies) vector. Site-directed Mutagenesis of RBM39 was performed using Q5 site-directed mutagenesis kit (NEB). DCAF15-GST (C-terminal GST tag) and DDB1 were also cloned into pFastBac1. The production of baculovirus was carried out following vendor's instructions. Protein was expressed in SF9 cells by infection with each protein specific baculovirus, and cells were harvested 48 hr later and frozen in liquid nitrogen. For purification of RBM39Δ150, frozen cells were pulverized by cryomill and resuspended in lysis buffer (40 mM Tris, pH 7.5, 225 mM NaCl, 1× […] Protease inhibitor). The lysate was passed through a 22 gauge needle 2 times followed by ultracentrifugation at 25000 rpm for 30 min. Clarified lysate was incubated with Ni-NTA agarose (Qiagen) for 30 min with rotation at 4° C. Resin and bound protein were washed with wash buffer 1 (40 mM Tris, pH 7.5, 225 mM NaCl) followed by wash buffer 2 (40 mM Tris, pH 7.5, 20 mM imidazole, 225 mM NaCl). Proteins were eluted with elution buffer (40 mM Tris, pH 7.5, 300 mM imidazole, 225 mM NaCl) and concentrated to 0.5 ml. Concentrated proteins were then fractionated on Superdex 200 Increase 10/300 GL (GE Healthcare). […]

758 cancer cell lines = settings: CTD2 AUC values; cited from earlier work
[4] = test system: tumors derived from parental HCT-116 cells; settings: IV 25 mg/kg for 8 days; immune deficient mice; cited from earlier work
[5] = test system: HCT-116 cells expressing wild type or mutant RBM39; assay: Transient transfection of RBM39 cDNA, crystal violet staining; assay type: cell-based, human; settings: 2 μM indisulam
Procedure: RBM39 was PCR amplified from U2OS cDNA and cloned into pLVX IRES zsGreen1 (Clontech). Mutagenesis of RBM39 was performed using Q5 site-directed mutagenesis kit (NEB) and primers were designed using the NEBaseChanger web server (nebasechanger.neb.com/). For transient transfection, 0.1 million HCT-116 cells were seeded per well in a 12-well plate on day 1. On day 2, cells were transfected with 1 μg of plasmid (pLVX IRES zsGreen containing wild type or mutant RBM39). […] For crystal violet staining, cells on plates were stained with 0.05% crystal violet, 1% formaldehyde in 1×PBS for 20 min at room temperature, followed by several rinses with deionized water to remove free stain.

NS(=O)(=O)c1ccc(S(=O)(=O)Nc2cccc3c(Cl)c[nH]c23)cc1 [Indisulam, indisulam]
tumor response ([1]; 25 mg/kg indisulam intravenous once a day for eight days, RBM39 G268V): grew at a rate indistinguishable from that of the control group; also recorded: resistant | Average maximal weight loss from start of therapy to 1 day post final dose ([1]; G268V xenograft, 25 mg/kg once a day for eight days): 8.4% | co-purification of RBM39-3xFLAG with DDA1, DDB1, CUL4A, CUL4B [2]: co-purified | recruitment of M265L or E271Q variants of RBM39Δ150 to DCAF15 [3]: failed to recruit | sensitivity to indisulam amongst hematopoietic and lymphoid (HL) lineage cell lines (758 cancer cell lines): significantly enriched | tumor response (previously shown) [4]: regression | cell survival (crystal violet) ([5]; mock-transfected or wild type RBM39): not indisulam resistant | cell survival (crystal violet) ([5]; transient expression of eight different RBM39 mutants): conferred resistance
